The text below walks through data of patent publication US6855735B2, “Ketamine treatment of restless legs syndrome” (Temple University of the Commonwealth System of Higher …, priority 2002, dated 2005).

Series [1] has as its system patients with RLS. The experiment in a line: Case reports: oral ketamine in patients with RLS (Examples 1-6). Format: in vivo, human. The settings on record: for earlier treatment of back pain, neurogenic claudication and RLS / earlier treatment: before ketamine. As to the method: A patient presented with a history of back pain, neurogenic claudication, and RLS. Treatment with the dopaminergic agonist, pergolide and oxycodone had been ineffective. In addition to RLS, the patient's past history included prior spinal surgery, insulin-dependent diabetes mellitus, sleep apnea, and congestive heart failure. Their family history was positive for RLS.
The patient was prescribed amitriptyline 25 mg at bedtime and gabapentin 300 mg three times daily in addition to their other medications.
After consenting to the evaluation of single dose efficacy of oral ketamine, the patient received 30 mg of ketamine mixed in 50 cc (or ml) of water. After 20 minutes of observation, the patient noted that their VAS score had improved to 2/10.
A patient with a history of chronic lower back pain, spinal stenosis, scoliosis, and RLS complained of worsening neurogenic claudication. Their VAS was 7/10.
The patient was then treated with 50 mg of oral ketamine.
A patient presented with a history of cardiac transplant, on immune suppressive medication, could not be treated with steroids for with spinal stenosis, neurogenic claudication, and RLS.
A patient presented with a history of multiple back surgeries and depression. […] Opioids were restarted to control the return of the patient's back pain.
A patient presented with a history of a renal transplant with documented lumbar radiculopathy and severe RLS on immunosuppressive treatment. The RLS symptoms were so severe that the patient could not keep their legs still at their initial office visit. […] While the RLS remitted during 4 months of treatment with 25 mg of ketamine daily, opioids were added to the treatment for pain control.
A dialysis patient presented with a history of failed back surgery, spinal stenosis and severe leg pain which responded to treatment with methadone but maintained severe RLS where the patient was not able to sleep more than 2 hours/night.

The test system of series [2] is NMDA receptor. The settings on record: primary metabolite of oral ketamine; cited from earlier work.
The test system of series [3] is patients with RLS. Nature of the series: Patients treated with doses of oral ketamine (Examples 7-23, Table). It counts as in vivo, human. How it is done: In the Table shown below, patients were treated with doses of oral ketamine.
(§1) The patients, shown in Examples 7-23, were treated with doses of liquid oral ketamine or oral ketamine in tablet form. There were no patients who had serum levels of ketamine measured that reached the levels reported for therapeutic analgesic effect of ketamine, i.e., 200 ng/ml.

Series [4] in a line: Serum levels of ketamine in patients treated with low doses of oral ketamine. Format: in vivo, human. How it is done: Also, it is suitable that the dose of ketamine administered is less than the dose generally administered for alleviation of pain. For example, since only about 20% of an oral dose of ketamine is absorbed, the successful treatment of a patient with 2 mg of ketamine for RLS over a 24 hour period would equal less than 0.001 mg/kg/hour. At these doses, the threshold serum level for pyschotomimetic side effects (on the order of 50 ng/ml) is not reached. Moreover, the threshold serum level for pain relief (on the order of 200 ng/ml) is also not approached. […] Thus, the serum levels at which oral ketamine acts to relieve RLS are substanitially lower than those reported for pain relief. Treatment with low dosages of oral ketamine provides relief for subjects suffering from or affected by RLS by alleviating symptoms associated with RLS, and avoids the side effects generally encountered in the use of ketamine for the treatment of conscious patients and/or other therapies for RLS described above.
as §1

The conditions of series [5]: cited from earlier work.
Where [6] appears, read: Example 1, amitriptyline 25 mg at bedtime and gabapentin 300 mg three times daily together, a month later.
Setting [7] is: Example 3, oral 20 mg at bedtime.
The mark [8] stands for this setting: one patient per row (Examples 7-23), oral ketamine 10-100 mg/24 hours (col I), treatment 1-8 months (col G).

Several values for one entry are separate records, joined by “and”; a condition that tells them apart may be missing. Identical values can stand only once.

`CN(C)CCC=C1c2ccccc2CCc2ccccc21` [amitriptyline]: in series [1] (setting [6]), the symptoms entry is recorded as “no improvement in their symptoms” and the “verbal analog pain score (VAS)” value was 6/10.

As to `COc1ccc2c3c1O[C@H]1C(=O)CC[C@@]4(O)[C@@H](C2)N(C)CC[C@]314` [oxycodone], the “earlier treatment of back pain, neurogenic claudication and RLS” value in series [1] (Example 1) is “ineffective”.

For the molecule `CS(=O)(=O)c1ccc(C2=C(c3ccccc3)C(=O)OC2)cc1` [rofecoxib], the earlier treatment result in series [1] (Example 2) is listed as “without success”.

Take `CCCN1C[C@H](CSC)C[C@@H]2c3cccc4[nH]cc(c34)C[C@H]21` [pergolide]: the “earlier treatment of back pain, neurogenic claudication and RLS” value in series [1] (Example 1) is reported as “ineffective”.

For `NCC1(CC(=O)O)CCCCC1` [gabapentin], in series [1] (setting [6]), the symptoms result is recorded as “no improvement in their symptoms” and the “verbal analog pain score (VAS)” value is 6/10. Moreover, the earlier treatment entry in series [1] (Example 2) was “without success”.

Turning to `NC1(c2ccccc2Cl)CCCCC1=O` (centres unmarked) [norketamine], the “potency relative to ketamine” value in series [2] is recorded as “one-third to one-fifth”.

For the molecule `CCC(=O)C(CC(C)N(C)C)(c1ccccc1)c1ccccc1` (centres unmarked) [methadone], in series [1] (Example 6, dialysis patient, severe RLS maintained), the severe leg pain entry is “responded”.

Turning to `CNC1(c2ccccc2Cl)CCCCC1=O` (centres unmarked) [ketamine, (2-o-chlorophenyl)-2-(methylamino)-cyclohexanone], the “verbal analog pain score (VAS)” value in series [1] (Example 1, person, single oral dose 30 mg ketamine in 50 cc water, after 20 minutes, VAS before 6/10) is on record as 2/10. Also, in series [1] (Example 1, oral 30 mg twice a day for 6 months), the “sleep and RLS” value is “improvement in sleep and RLS”. Besides, the “side effects after single dose” value in series [1] (Example 1, single oral dose 30 mg) is “no dizziness, or other distressing symptoms”. The VAS in series [1] (Example 2, person, 50 mg oral ketamine, within 15 minutes, VAS before 7/10) is given as 2/10. In addition, the walking entry in series [1] (Example 2, 50 mg oral ketamine, within 15 minutes) was “subjective improvement in walking”. Moreover, the “sleep and RLS symptoms” value in series [1] (Example 2, oral 40 mg twice a day, a month following the trial) is “significant improvement in their sleep and RLS symptoms”. Further, in series [1] (setting [7]), the pain relief result is on record as “no pain relief” and the side effects result is given as “psychotomimetic side effects”. Moreover, the RLS entry in series [1] (Example 3, oral 20 mg at bedtime, persisted after ketamine was stopped) was “resolution of RLS”. Further, the “RLS symptoms and sleep” value in series [1] (Example 4, oral daily 25 mg) was “lessened RLS symptoms and improved sleep”. In series [1] (Example 5, renal transplant patient, oral daily 10 mg), the “pain and RLS” value was “pain relief and resolution of RLS”. In addition, the RLS entry in series [1] (Example 5, 25 mg daily, 4 months of treatment) was “RLS remitted”. Moreover, the “reduction of RLS symptoms” value in series [1] (Example 6, dialysis patient, 2 mg oral at bedtime) was “more than 50%”. In addition, the “tolerability (psychotomimetic effects)” value in series [1] (Example 6, dialysis patient, 20 mg daily oral) is on record as “could not tolerate”. Also, the psychotomimetic side effects result in series [1] (Example 6, 2 mg oral at bedtime) is reported as “no psychotomimetic side effects”. Further, the sleep duration entry in series [1] (Example 6, 2 mg oral at bedtime, before not more than 2 hours/night) was “more than 4.5 hrs./night”. Besides, in series [3] (setting [8]), the “F = VAS or visual analog scale for pain/walking ability (improvement)” value is 80% (4×) and 60% (5×) and 90% and 70% (4×) and 50% (2×) and 40%; the “J = complications” value is “No (14×) and Yes (2×) and Rash”. Further, in series [3] (patients of Examples 7-23, low ketamine dosage), the RLS symptoms result is “improved related limb sensations, motor restlessness and insomnia”. Moreover, the “serum levels of ketamine” value in series [4] (patients of Examples 7-23 who had serum levels measured, liquid or tablet oral ketamine) was less than 200 ng/mL. For the same molecule, in series [4] (patients treated with low doses of oral ketamine for RLS, commercially available tests), the “serum levels of ketamine” value is “not to have detectable serum levels”. In series [5] (in vivo), the “threshold serum level for pain relief” value was roughly 200 ng/mL. Moreover, the “fraction of an oral dose absorbed” value in series [5] (oral) is listed as “about 20%”.

In the case of `C=C[C@H]1C[N@@]2CC[C@H]1C[C@H]2[C@H](O)c1ccnc2ccc(OC)cc12` [quinine], the earlier treatment result in series [1] (Example 2) is “without success”.

In the case of `COc1cccc(C2(O)CCCCC2CN(C)C)c1` (centres unmarked) [tramadol], the earlier treatment result in series [1] (Example 2) is on record as “without success”.
